Results on one molecule are retold here after patent US20240366648A1, “NAD-AUGMENTATION THERAPY FOR PARKINSON'S DISEASE” (Vestlandets Innovasjonsselskap AS (VIS), priority 2021, published 2024).

In the assay the test system is cerebral NAD. Briefly: 31P-MRS of the brain, phase I trial of oral NR in newly diagnosed PD patients. The class given is in vivo, human. The procedure: A trial of tolerability and cerebral bioavailability of NAD supplementation therapy with nicotinamide riboside (“NR”), provided in the form of nicotinamide riboside chloride ([…]® from Chromadex) in PD patients was completed. In the trial, 30 individuals with newly diagnosed, drug naïve PD were randomized and given NR 500 mg×2/day or placebo for a period of 30 days. 31P-MRS was performed at baseline (Visit 1) and at on the last day of treatment (Visit 2). The scans of 27 individuals passed quality control at both visits. A single-center, double-blinded, randomized, placebo-controlled phase I trial of oral NR supplementation in newly diagnosed patients with PD was conducted. […] Due to the early onset, this patient underwent genetic investigation with whole-exome sequencing and SNP-chip based genome-wide copy number variation analysis, which excluded pathogenic mutations in PD-related genes, including PINK1 and PRKN. screening. Patient recruitment, inclusion, and follow-up was carried out by a GCP certified investigator. Sample size of 30 participants was chosen based on previously reported brain metabolic network analyses. Thirty PD patients were randomly assigned (Block size 6, allocation 1:1) to 500 mg NR, provided in the form of nicotinamide riboside chloride ([…]® from Chromadex), or placebo twice per day, 12 hours apart, using the electronic Case Report Form (Viedoc.com). The drug containers were sequentially marked by an independent third party. The […]®) and placebo were provided by ChromaDex, USA. Each NR capsule contained 250 mg of NR. Placebo capsules contained microcrystalline cellulose. The vials and capsules containing NR and placebo were identical in shape, colour, and smell. Study drug compliance was calculated from counting returned number of study capsules and self-reporting. Participants, examining physicians, medical- and research personnel were blinded for the duration of the trial. Sample size was determined by comparing previous literature with respect to the primary objective. At screening for trial entry, candidates underwent physical and neurological examination, brain MRI, and […]. Eligible patients who entered the trial were assessed at baseline (visit 1, V1) and after four weeks of exposure to either NR or placebo (visit 2, V2). At both visits, patients underwent physical and neurological examination, including assessment by the Movement Disorder Society Unified Parkinson's Disease Rating Scale section I-IV (MDS-UPDRS), and biological sampling. MR-PET was performed within one week prior to visit 1, and at visit 2. All participants remained naïve for antiparkinson drugs for the duration of the trial. All clinical assessments were performed by a blinded movement disorders expert. Each patient was examined by the same neurologist at both visits. Methodological details on each procedure are provided below. Safety was monitored through routine clinical blood tests and registration of adverse events. Adverse events (AE) were recorded and scored by the investigative physician. […] The AE relation to the study drug was scored as (1) unrelated, (2) unlikely, (3) possible, (4) probable or (5) definitely. MRI/S was conducted on a 3T Biograph mMR MR-PET scanner (Siemens Healthcare, Germany). Phosphorous MRS (31P-MRS) was performed on a double-resonant transmit/receive 1H/31P volume head-coil (Rapid Biomedical, Germany). […]

SMILES strings stand for the structures.

For `NC(=O)c1ccc[n+]([C@@H]2O[C@H](CO)[C@@H](O)[C@H]2O)c1` [NR, nicotinamide riboside], for the setting “NR group n=13, oral NR 500 mg x2/day, 30 days, paired t-test p=0.016”, the “cerebral NAD levels normalized to ATP-α, visit 2 vs baseline” value is given as “highly significant increase”. Further, for the setting “NR group, 30 days”, the “other metabolites detected by 31P-MRS, change between visits” value was “No other detected metabolites exhibited significant change”. In addition, the “patients showing an increase in cerebral NAD (MRS-responders)” value (NR recipients with MRS data, 30 days) is listed as 10/13. Also, the “patients with cerebral NAD change exceeding 10% of baseline levels” value (of the 10 MRS-responders among 13 NR recipients) amounted to 9. Under “oral NR 500 mg x2/day, 30 days, t-test p=0.025”, the “between visit change (visit 2/visit 1) in NAD/ATP-α ratio, NR vs placebo group” value is on record as “significantly higher”.
